Test results published in patent US9833497B2, “Human originated EGF domain proteins and use of the same” (CHENGDU SOURCEBIO LIMITED-LIABILITY COMPANY, priority 2013, dated 2017).

Experiments:
Assay type in all cases: cell-based
[1] = test system: Proteus mirabilis; assay: MIC against Gram-negative bacteria: Proteus mirabilis
In short: (§1)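 MIC, the lowest recombinant protein concentration giving no bacterial growth, found by two-fold serial dilution of human EGF-domain proteins in triplicate. Inoculum 5×10^5 CFU/mL in LB from cultures at McFarland 0.5; plates incubated at 37° C, 175 rpm shaking.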

[2] = test system: Klebsiella pneumonia; assay: MIC against Gram-negative bacteria: Klebsiella pneumonia
In short: as §1

[3] = test system: E. coli BL21; assay: MIC against Gram-negative bacteria: E. coli BL21
In short: as §1

[4] = test system: Citrobacter diversus; assay: MIC against Gram-negative bacteria: Citrobacter diversus
In short: as §1

[5] = test system: Serratia marcescens; assay: MIC against Gram-negative bacteria: Serratia marcescens
In short: as §1

[6] = test system: Moraxella catarrhalis; assay: MIC against Gram-negative bacteria: Moraxella catarrhalis
In short: as §1

[7] = test system: Aeromonas hydrophila; assay: MIC against Gram-negative bacteria: Aeromonas hydrophila
In short: as §1

[8] = test system: Enterobacter cloacae; assay: MIC against Gram-negative bacteria: Enterobacter cloacae
In short: as §1

[9] = test system: E. coli DH5α; assay: Antibacterial activity: MIC and growth curve against E. coli DH5α in 96-well plate; settings: minimal inhibitory concentration against E. coli DH5α; 96-well plate, 5×10^5 CFU/mL, 37° C., judged after 8 h
In short: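 Log-phase bacteria (OD600 ~0.5) resuspended in LB at 5×10^5 CFU/mL, exposed to recombinant protein at 50, 25, 12.5 μg/mL final in triplicate, 37 °C shaking at 175 rpm. OD600 read every 30 min; MIC is lowest concentration showing no growth.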

[10] = test system: Proteus vulgaris; assay: MIC against Gram-negative bacteria: Proteus vulgaris
In short: as §1

[11] = test system: Pseudomonas aeruginosa; assay: MIC against Gram-negative bacteria: Pseudomonas aeruginosa
In short: as §1

[12] = Proteus mirabilis, 96-well plate, 5×10^5 CFU/mL, 37° C., 10 h
[13] = Klebsiella pneumonia, 96-well plate, 5×10^5 CFU/mL, 37° C., 10 h
[14] = E. coli BL21, 96-well plate, 5×10^5 CFU/mL, 37° C., 10 h
[15] = Citrobacter diversus, 96-well plate, 5×10^5 CFU/mL, 37° C., 10 h
[16] = Serratia marcescens, 96-well plate, 5×10^5 CFU/mL, 37° C., 10 h
[17] = Moraxella catarrhalis, 96-well plate, 5×10^5 CFU/mL, 37° C., 10 h
[18] = Aeromonas hydrophila, 96-well plate, 5×10^5 CFU/mL, 37° C., 10 h
[19] = Enterobacter cloacae, 96-well plate, 5×10^5 CFU/mL, 37° C., 10 h
[20] = Proteus vulgaris, 96-well plate, 5×10^5 CFU/mL, 37° C., 10 h
[21] = Pseudomonas aeruginosa, 96-well plate, 5×10^5 CFU/mL, 37° C., 10 h
[22] = P. mirabilis, 10 h cultivation at 37° C., 5×10^5 CFU/mL
[23] = K. pneumonia, 10 h cultivation at 37° C., 5×10^5 CFU/mL
[24] = E. coli BL21, 10 h cultivation at 37° C., 5×10^5 CFU/mL
[25] = C. diversus, 10 h cultivation at 37° C., 5×10^5 CFU/mL
[26] = S. marcescens, 10 h cultivation at 37° C., 5×10^5 CFU/mL
[27] = M. catarrhalis, 10 h cultivation at 37° C., 5×10^5 CFU/mL
[28] = A. hydrophila, 10 h cultivation at 37° C., 5×10^5 CFU/mL
[29] = E. cloacae, 10 h cultivation at 37° C., 5×10^5 CFU/mL
[30] = P. vulgaris, 10 h cultivation at 37° C., 5×10^5 CFU/mL
[31] = P. aeruginosa, 10 h cultivation at 37° C., 5×10^5 CFU/mL
[32] = P. mirabilis, 10 h cultivation at 37° C.
[33] = K. pneumonia, 10 h cultivation at 37° C.
[34] = E. coli BL21, 10 h cultivation at 37° C.
[35] = C. diversus, 10 h cultivation at 37° C.
[36] = S. marcescens, 10 h cultivation at 37° C.
[37] = M. catarrhalis, 10 h cultivation at 37° C.
[38] = A. hydrophila, 10 h cultivation at 37° C.
[39] = E. cloacae, 10 h cultivation at 37° C.
[40] = P. vulgaris, 10 h cultivation at 37° C.
[41] = P. aeruginosa, 10 h cultivation at 37° C.
[42] = 96-well plate, 5×10^5 CFU/mL, 37° C., 10 h

## PRT59 (PCTVGDASACLTCAPDNRTRCGTCNTGYMLSQGLCK; listed as Homo sapiens)
[1]; [12]
  MIC (μg/mL) P. mirabilis: 25 µg/mL
[2]; [13]
  MIC (μg/mL) K. pneumonia: 50 µg/mL
[3]; [14]
  MIC (μg/mL) E. coli BL21: 12.5 µg/mL
[4]; [15]
  MIC (μg/mL) C. diversus: 25 µg/mL
[5]; [16]
  MIC (μg/mL) S. marcescens: 12.5 µg/mL
[6]; [17]
  MIC (μg/mL) M. catarrhalis: 12.5 µg/mL
[7]; [18]
  MIC (μg/mL) A. hydrophila: 12.5 µg/mL
[8]; [19]
  MIC (μg/mL) E. cloacae: 25 µg/mL
[9]
  MIC: 25 µg/mL
[10]; [20]
  MIC (μg/mL) P. vulgaris: 12.5 µg/mL
[11]; [21]
  MIC (μg/mL) P. aeruginosa: 25 µg/mL

## PRT249 (EAICAKPCLNGGVCVRPDQCECAPGWGGKHCH; listed as Homo sapiens)
[1]; [22]
  MIC (μg/mL) P. mirabilis: 12.5 µg/mL
[2]; [23]
  MIC (μg/mL) K. pneumonia: 12.5 µg/mL
[3]; [24]
  MIC (μg/mL) E. coli BL21: 12.5 µg/mL
[4]; [25]
  MIC (μg/mL) C. diversus: 25 µg/mL
[5]; [26]
  MIC (μg/mL) S. marcescens: 12.5 µg/mL
[6]; [27]
  MIC (μg/mL) M. catarrhalis: 12.5 µg/mL
[7]; [28]
  MIC (μg/mL) A. hydrophila: 12.5 µg/mL
[8]; [29]
  MIC (μg/mL) E. cloacae: 25 µg/mL
[9]
  MIC: 25 µg/mL
[10]; [30]
  MIC (μg/mL) P. vulgaris: 12.5 µg/mL
[11]; [31]
  MIC (μg/mL) P. aeruginosa: 12.5 µg/mL

## PRT32 (RCEAQKWGPECNHLCTACMNNGVCHEDTGECICPPGFMGRTCE; listed as Homo sapiens)
[1]; [12]
  MIC (μg/mL) P. mirabilis: 12.5 µg/mL
[2]; [13]
  MIC (μg/mL) K. pneumonia: 12.5 µg/mL
[3]; [14]
  MIC (μg/mL) E. coli BL21: 50 µg/mL
[4]; [15]
  MIC (μg/mL) C. diversus: 12.5 µg/mL
[5]; [16]
  MIC (μg/mL) S. marcescens: 50 µg/mL
[6]; [17]
  MIC (μg/mL) M. catarrhalis: 50 µg/mL
[7]; [18]
  MIC (μg/mL) A. hydrophila: 50 µg/mL
[8]; [19]
  MIC (μg/mL) E. cloacae: 25 µg/mL
[9]
  MIC: 12.5 µg/mL
[10]; [20]
  MIC (μg/mL) P. vulgaris: 25 µg/mL
[11]; [21]
  MIC (μg/mL) P. aeruginosa: 12.5 µg/mL

## PRT1286 (PKSPCEGTECQNGANCVDQGNRPVCQCLPGFGGPECE; listed as Homo sapiens)
[1]; [12]
  MIC against P. mirabilis: 50 µg/mL
[2]; [13]
  MIC against K. pneumonia: 50 µg/mL
[3]; [14]
  MIC against E. coli BL21: 50 µg/mL
[4]; [15]
  MIC against C. diversus: 12.5 µg/mL
[5]; [16]
  MIC against S. marcescens: 12.5 µg/mL
[6]; [17]
  MIC against M. catarrhalis: 25 µg/mL
[7]; [18]
  MIC against A. hydrophila: 50 µg/mL
[8]; [19]
  MIC against E. cloacae: 12.5 µg/mL
[9]
  MIC: 12.5 µg/mL
[10]; [20]
  MIC against P. vulgaris: 25 µg/mL
[11]; [21]
  MIC against P. aeruginosa: 12.5 µg/mL

## PRT1041 (VPLCAQECVHGRCVAPNQCQCVPGWRGDDCS; listed as Homo sapiens)
[1]; [32]
  MIC: 25 µg/mL
[2]; [33]
  MIC: 25 µg/mL
[3]; [34]
  MIC: 25 µg/mL
[4]; [35]
  MIC: 12.5 µg/mL
[5]; [36]
  MIC: 25 µg/mL
[6]; [37]
  MIC: 50 µg/mL
[7]; [38]
  MIC: 50 µg/mL
[8]; [39]
  MIC: 50 µg/mL
[9]
  MIC: 12.5 µg/mL
[10]; [40]
  MIC: 50 µg/mL
[11]; [41]
  MIC: 50 µg/mL

## PRT217 (DIDECTIPPYCHQRCVNTPGSFYCQCSPGFQLAANNYTCV; listed as Homo sapiens)
[1]; [22]
  MIC (μg/mL) P. mirabilis: 12.5 µg/mL
[2]; [23]
  MIC (μg/mL) K. pneumonia: 25 µg/mL
[3]; [24]
  MIC (μg/mL) E. coli BL21: 25 µg/mL
[4]; [25]
  MIC (μg/mL) C. diversus: 12.5 µg/mL
[5]; [26]
  MIC (μg/mL) S. marcescens: 50 µg/mL
[6]; [27]
  MIC (μg/mL) M. catarrhalis: 12.5 µg/mL
[7]; [28]
  MIC (μg/mL) A. hydrophila: 25 µg/mL
[8]; [29]
  MIC (μg/mL) E. cloacae: 12.5 µg/mL
[9]
  MIC: 12.5 µg/mL
[10]; [30]
  MIC (μg/mL) P. vulgaris: 12.5 µg/mL
[11]; [31]
  MIC (μg/mL) P. aeruginosa: 12.5 µg/mL

## PRT468 (LCTPRCMNGGLCVTPGFCICPPGFYGVNCD; listed as Homo sapiens)
[1]; [42]
  MIC against P. mirabilis: 50 µg/mL
[2]; [42]
  MIC against K. pneumonia: 50 µg/mL
[3]; [42]
  MIC against E. coli BL21: 12.5 µg/mL
[4]; [42]
  MIC against C. diversus: 50 µg/mL
[5]; [42]
  MIC against S. marcescens: 50 µg/mL
[6]; [42]
  MIC against M. catarrhalis: 12.5 µg/mL
[7]; [42]
  MIC against A. hydrophila: 12.5 µg/mL
[8]; [42]
  MIC against E. cloacae: 25 µg/mL
[9]
  MIC: 25 µg/mL
[10]; [42]
  MIC against P. vulgaris: 12.5 µg/mL
[11]; [42]
  MIC against P. aeruginosa: 25 µg/mL

## PRT1022 (DIDECSEQPSVCGSHTICNNHPGTFRCECVEGYQFSDEGTCV; listed as Homo sapiens)
[1]; [32]
  MIC: 50 µg/mL
[2]; [33]
  MIC: 25 µg/mL
[3]; [34]
  MIC: 50 µg/mL
[4]; [35]
  MIC: 50 µg/mL
[5]; [36]
  MIC: 12.5 µg/mL
[6]; [37]
  MIC: 12.5 µg/mL
[7]; [38]
  MIC: 25 µg/mL
[8]; [39]
  MIC: 25 µg/mL
[9]
  MIC: 12.5 µg/mL
[10]; [40]
  MIC: 12.5 µg/mL
[11]; [41]
  MIC: 12.5 µg/mL

## PRT416 (DVDECAPPAEPCGKGHRCVNSPGSFRCECKTGYYFDGISRMCV; listed as Homo sapiens)
[1]; [22]
  MIC: 50 µg/mL
[2]; [23]
  MIC: 25 µg/mL
[3]; [24]
  MIC: 25 µg/mL
[4]; [25]
  MIC: 12.5 µg/mL
[5]; [26]
  MIC: 12.5 µg/mL
[6]; [27]
  MIC: 25 µg/mL
[7]; [28]
  MIC: 25 µg/mL
[8]; [29]
  MIC: 50 µg/mL
[9]
  MIC: 50 µg/mL
[10]; [30]
  MIC: 25 µg/mL
[11]; [31]
  MIC: 12.5 µg/mL

## PRT219 (DIDECRTSSYLCQYQCVNEPGKFSCMCPQGYQVVRSRTCQ; listed as Homo sapiens)
[1]; [22]
  MIC (μg/mL) P. mirabilis: 12.5 µg/mL
[2]; [23]
  MIC (μg/mL) K. pneumonia: 12.5 µg/mL
[3]; [24]
  MIC (μg/mL) E. coli BL21: 25 µg/mL
[4]; [25]
  MIC (μg/mL) C. diversus: 12.5 µg/mL
[5]; [26]
  MIC (μg/mL) S. marcescens: 12.5 µg/mL
[6]; [27]
  MIC (μg/mL) M. catarrhalis: 12.5 µg/mL
[7]; [28]
  MIC (μg/mL) A. hydrophila: 12.5 µg/mL
[8]; [29]
  MIC (μg/mL) E. cloacae: 12.5 µg/mL
[9]
  MIC: 12.5 µg/mL
[10]; [30]
  MIC (μg/mL) P. vulgaris: 25 µg/mL
[11]; [31]
  MIC (μg/mL) P. aeruginosa: 50 µg/mL

## PRT6 (TRKLCSLDNGDCDQFCHEEQNSVVCSCARGYTLADNGKACI; listed as Homo sapiens)
[1]; [12]
  MIC (μg/mL) P. mirabilis: 12.5 µg/mL
[2]; [13]
  MIC (μg/mL) K. pneumonia: 50 µg/mL
[3]; [14]
  MIC (μg/mL) E. coli BL21: 50 µg/mL
[4]; [15]
  MIC (μg/mL) C. diversus: 25 µg/mL
[5]; [16]
  MIC (μg/mL) S. marcescens: 25 µg/mL
[6]; [17]
  MIC (μg/mL) M. catarrhalis: 25 µg/mL
[7]; [18]
  MIC (μg/mL) A. hydrophila: 12.5 µg/mL
[8]; [19]
  MIC (μg/mL) E. cloacae: 25 µg/mL
[9]
  MIC: 50 µg/mL
[10]; [20]
  MIC (μg/mL) P. vulgaris: 25 µg/mL
[11]; [21]
  MIC (μg/mL) P. aeruginosa: 25 µg/mL
